{"source": "paper PMC11350809", "about": "“Targeting N-Acetylglucosaminidase in Staphylococcus aureus with Iminosugar Inhibitors” (Antibiotics, 2024)", "key": {"[1]": {"molecular_target": "β-Glucosidase (from almond)", "conditions": "cited from earlier work"}, "[2]": {"molecular_target": "α-Glucosidase (from baker's yeast)", "conditions": "cited from earlier work"}, "autolysin E (AtlE)": {"molecular_target": "autolysin E (AtlE) (Staphylococcus aureus, UniProt A0A0H3JT72)", "sequence (A0A0H3JT72 entry or part of it)": "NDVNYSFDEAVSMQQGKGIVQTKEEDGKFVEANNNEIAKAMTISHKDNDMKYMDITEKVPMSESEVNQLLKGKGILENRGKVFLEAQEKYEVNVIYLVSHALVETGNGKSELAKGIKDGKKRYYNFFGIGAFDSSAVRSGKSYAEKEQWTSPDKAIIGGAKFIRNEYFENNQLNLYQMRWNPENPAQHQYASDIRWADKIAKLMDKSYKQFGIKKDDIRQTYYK", "experiment": "Surface plasmon resonance (SPR) binding to immobilized AtlE", "conditions": "for maximal SPR response compared with the maximal theoretical response: theoretical response calculated from molecular masses of AtlE and compound, surfactant P20 in running buffer", "description": "The potential inhibitory effect of compounds that bind to AtlE was measured using surface plasmon resonance (SPR). The protein was covalently attached to the surface of the CM5 sensor chip (5200 response units (RU)). The compounds were prepared as 20 mM stock solutions in DMSO and diluted with HEPES running buffer with 2.5% DMSO. Some compounds were less soluble, which was also predicted by the in silico programs and QSAR models for aqueous solubility (see Supplementary Table S3).\nThe binding of iminosugars was recorded and analyzed using the Biacore T200 3.2.1 software v3.2.1 Evaluation (for results, see Table 1). […] Therefore, for further testing of AtlE binding, the iminosugar derivatives with a lipophilic tail were chosen (1,5-dideoxy-1,5-imino-D-xylitol derivatives (DIX)).\nThree compounds, 1, 3 and 8, were identified as AtlE binders. Two of them, 1 and 3, were titrated at eight different concentrations, while compound 8 was titrated firstly at six different concentrations (Figure 4a) and secondly at seven concentrations (Figure S2). The equilibrium dissociation constant KD was estimated using the 1:1 steady-state affinity binding model, with the graphs showing the response units as a function of inhibitor concentration (Figure 4b). […] The maximal theoretical response was calculated using the molecular masses of AtlE and the compounds, respectively. […] Due to the amphiphilicity of the compounds with a hydrophilic sugar unit in the head and a hydrophobic fatty acid residue in the tail, we can assume that both compounds can form oligomeric micelles. To prevent the formation of micelles, we added a surfactant P20 to the running buffer, but the maximum theoretical binding to AtlE was not reached for compounds 1 and 3. This brings into question the true nature of their binding and should be verified by another independent method.\nFigure 4 (a) Representative SPR sensorgrams (response curves) and (b) representative saturation curves with evaluated KD for compounds 1, 3 and 8 at different concentrations. SPR analysis of compound 1, 3 and 8 interactions with the immobilized AtlE. Compounds were injected across immobilized AtlE in serial dilutions for 60 s at a rate of […], and the dissociation was followed for 50 s. Sensorgrams are shown along with the apparent equilibrium dissociation constant (KD) determined from the response curves as a function of the compound concentration injected across AtlE. KD values are the mean ± standard deviation of three titrations. The data were fitted to the steady-state affinity binding model.\nSurface plasmon resonance (SPR) experiments were performed at 25 °C using a Biacore T200 (Biacore, GE Healthcare, Uppsala, Sweden) instrument with Series S sensor chip CM5 (GE Healthcare). […]"}, "[3]": {"molecular_target": "β-Galactosidase (from bovine liver)", "conditions": "cited from earlier work"}, "naringinase (Nar)": {"molecular_target": "naringinase (Nar)", "conditions": "cited from earlier work"}, "S. aureus (ATCC 29213)": {"system": "S. aureus (ATCC 29213)", "experiment": "Minimal inhibitory concentration, broth microdilution", "assay_type": "cell-based, Staphylococcus aureus", "conditions": "for MIC: Staphylococcus aureus, ATCC29213, broth microdilution, 20 h at 35 °C, read-out: MIC S. aureus ATCC29213", "description": "(§1) The minimal inhibitory concentrations (MICs) were determined against the bacterial strains S. aureus (ATCC 29213) and E. coli (ATCC 25922), and the results are presented in Table S6.\n(§2) Antimicrobial testing was carried out by the broth microdilution method in a 96-well plate format following the CLSI guidelines and European Committee for Antimicrobial Susceptibility Testing (EUCAST) recommendations. Bacterial suspension of a specific bacterial strain equivalent to 0.5 McFarland turbidity standard was diluted with cation-adjusted Mueller Hinton broth to obtain a final inoculum of 10^5 CFU/mL. Compounds dissolved in 20% DMSO and inoculum were mixed together and incubated for 20 h at 35 °C. After incubation, the minimal inhibitory concentration (MIC) values were determined by visual inspection as the lowest dilution of compounds showing no turbidity. The MICs were determined against S. aureus (ATCC 29213) and E. coli (ATCC 25922) bacterial strains. Tetracycline was used as a positive control on every assay plate, showing MICs of 0.5 µg/mL and 1 µg/mL for S. aureus and E. coli, respectively."}, "[4]": {"molecular_target": "α-Galactosidase (from green coffee beans)", "conditions": "cited from earlier work"}, "[5]": {"molecular_target": "β-galactocerebrosidase (GALC)", "conditions": "cited from earlier work"}, "[6]": {"molecular_target": "human recombinant β-glucocerebrosidase (GBA)", "conditions": "cited from earlier work"}, "E. coli (ATCC 25922)": {"system": "E. coli (ATCC 25922)", "experiment": "Minimal inhibitory concentration, broth microdilution (negative control strain)", "assay_type": "cell-based", "conditions": "Escherichia coli, ATCC25922; broth microdilution, 20 h at 35 °C; read-out: MIC E. coli ATCC25922", "description": "as §1, §2"}, "[7]": {"conditions": "pH 5.0, p-nitrophenyl-b-d-glucopyranoside, footnote **"}, "[8]": {"conditions": "pH 7.2, p-nitrophenyl-a-d-glucopyranoside, footnote **"}, "[9]": {"conditions": "pH 6.8, p-nitrophenyl-a-d-galactopyranoside, footnote **"}, "[10]": {"conditions": "pH 5.2, footnote **, read-out: IC50 GBA pH 5.2"}, "[11]": {"conditions": "pH 7.0, footnote **, read-out: IC50 GBA pH 7.0"}}, "note": "Entries after “also recorded” stand apart in the source; their conditions may differ. Like-named read-outs stand apart in the source and are kept apart here.", "data": [{"smiles": "CCCCCCCCCCNC(=N)N1CC(O)C(O)C(O)C1", "note": "(stereo not drawn) [Compound 3]", "values": [{"measurement": "IC50", "setting": "[1]; [7]", "result": "26 ± 0.9", "unit": "µM"}, {"measurement": "IC50", "setting": "[2]; [8]", "result": "> 100", "unit": "µM"}, {"measurement": "maximal SPR response compared with the maximal theoretical response", "setting": "autolysin E (AtlE)", "result": "higher maximal response than expected; also recorded: higher than expected maximum response"}, {"measurement": "IC50", "setting": "[3]; footnote **", "result": "2.7 ± 0.2", "unit": "µM"}, {"measurement": "IC50", "setting": "naringinase (Nar); footnote **", "result": "41.5 ± 0.2", "unit": "µM"}, {"measurement": "MIC", "setting": "S. aureus (ATCC 29213)", "result": 500, "unit": "µM"}, {"measurement": "IC50", "setting": "[4]; [9]", "result": "> 100", "unit": "µM"}, {"measurement": "IC50", "setting": "[5]; footnote **", "result": "> 10", "unit": "µM"}, {"measurement": "IC50 human recombinant β-glucocerebrosidase", "setting": "[6]; in words", "result": "low nanomolar range"}, {"measurement": "IC50", "setting": "[6]; [10]", "result": "0.09 ± 0.01", "unit": "µM"}, {"measurement": "IC50", "setting": "[6]; [11]", "result": "0.03 ± 0.01", "unit": "µM"}, {"measurement": "MIC", "setting": "E. coli (ATCC 25922)", "result": "> 500", "unit": "µM"}]}, {"smiles": "CCCCCCCCCCNC(=O)N1CC(O)C(O)C(O)C1", "note": "(stereo not drawn) [Compound 8]", "values": [{"measurement": "IC50", "setting": "[1]; [7]", "result": "> 100", "unit": "µM"}, {"measurement": "IC50", "setting": "[2]; [8]", "result": "> 100", "unit": "µM"}, {"measurement": "maximal SPR response compared with the maximal theoretical response", "setting": "autolysin E (AtlE)", "result": "achieved the expected maximal theoretical response; also recorded: expected maximum theoretical response was not exceeded"}, {"measurement": "IC50", "setting": "[3]; footnote **", "result": "10.4 ± 0.9", "unit": "µM"}, {"measurement": "IC50", "setting": "naringinase (Nar); footnote **", "result": "> 100", "unit": "µM"}, {"measurement": "MIC", "setting": "S. aureus (ATCC 29213)", "result": "> 500", "unit": "µM"}, {"measurement": "IC50", "setting": "[4]; [9]", "result": "> 100", "unit": "µM"}, {"measurement": "IC50", "setting": "[5]; footnote **", "result": "> 10", "unit": "µM"}, {"measurement": "inhibitor of β-glucocerebrosidase", "setting": "[6]; in words, previous studies", "result": "not as an inhibitor of β-glucocerebrosidase"}, {"measurement": "binding of human recombinant β-glucocerebrosidase", "setting": "[6]; in words", "result": "no binding of this enzyme was observed"}, {"measurement": "IC50", "setting": "[6]; [10]", "result": "> 10", "unit": "µM"}, {"measurement": "IC50", "setting": "[6]; [11]", "result": "> 10", "unit": "µM"}, {"measurement": "MIC", "setting": "E. coli (ATCC 25922)", "result": "> 500", "unit": "µM"}]}, {"smiles": "CCCCCCCCCCCCCCN=C1OCC2C(O)C(O)C(O)CN12", "note": "(stereo not drawn) [Compound 1]", "values": [{"measurement": "IC50", "setting": "[1]; pH 5.0, p-nitrophenyl-β-D-glucopyranoside, footnote *", "result": "0.7 ± 0.03", "unit": "µM"}, {"measurement": "IC50", "setting": "[2]; pH 7.2, p-nitrophenyl-α-D-glucopyranoside, footnote *", "result": "> 100", "unit": "µM"}, {"measurement": "maximal SPR response compared with the maximal theoretical response", "setting": "autolysin E (AtlE)", "result": "higher maximal response than expected; also recorded: higher than expected maximum response"}, {"measurement": "IC50", "setting": "[3]; footnote *", "result": "0.1 ± 0.03", "unit": "µM"}, {"measurement": "IC50", "setting": "naringinase (Nar); footnote *", "result": "0.2 ± 0.01", "unit": "µM"}, {"measurement": "MIC", "setting": "S. aureus (ATCC 29213)", "result": 8, "unit": "µM"}, {"measurement": "antibacterial activity against S. aureus ATCC 29213", "setting": "S. aureus (ATCC 29213); in words", "result": "modest antibacterial activities"}, {"measurement": "IC50", "setting": "[4]; pH 6.8, p-nitrophenyl-α-D-galactopyranoside, footnote *", "result": "> 100", "unit": "µM"}, {"measurement": "IC50", "setting": "[5]; footnote *", "result": "> 10", "unit": "µM"}, {"measurement": "IC50 human recombinant β-glucocerebrosidase", "setting": "[6]; in words", "result": "low nanomolar range"}, {"measurement": "IC50", "setting": "[6]; pH 5.2, footnote *, read-out: IC50 GBA pH 5.2", "result": "0.02 ± 0.001", "unit": "µM"}, {"measurement": "IC50", "setting": "[6]; pH 7.0, footnote *, read-out: IC50 GBA pH 7.0", "result": "0.001 ± 0.001", "unit": "µM"}, {"measurement": "MIC", "setting": "E. coli (ATCC 25922)", "result": 125, "unit": "µM"}]}, {"smiles": "OC[C@H]1NC[C@H](O)[C@@H](O)[C@@H]1O", "note": "[1-deoxynojirimycin, reference compound]", "values": [{"measurement": "binding of AtlE (SPR)", "setting": "autolysin E (AtlE); tested at 100 µM and 1 mM", "result": "no binding of AtlE; also recorded: did not inhibit AtlE"}]}]}
